Laboratory results from article PMC12080252, “Daphnia magna as an Alternative Model for (Simultaneous) Bioaccumulation and Chronic Toxicity Assessment—Controlled Exposure Study Indicates High Hazard of Heterocyclic PAHs” (Environmental Science & Technology, 2025).
Several values for one entry are separate records, joined by “and”; a condition that tells them apart may be missing. Equal values may be shown once.

Columns and labels:
[1] = cited from earlier work
D. magna = details: controlled exposure conditions; cited from earlier work
Daphnia magna = test: Chronic reproduction toxicity test (OECD 211) with passive dosing; assay type: in vivo; details: for EC10: 21-day reproduction inhibition; for % inhibition, avr.: average of vessels; for #live offspring per mother, Total: one value per vessel; for wet weight of parent daphnids, change relative to control: end of 21-d exposure
Procedure: (§1) Chronic toxicity tests with D. magna were performed according to the OECD guideline 211^2 using the passive dosing method. Two days before the tests, the exposure solution was predosed by shaking 10 PDMS disks loaded with the test substance in 1 L of medium for 48 h. Each test vessel (250 mL) was first flushed with the dosed solution to equilibrate the vessel walls, then filled with 100 mL of test solution, one PDMS disk, and one juvenile D. magna (<24 h old). The tests were conducted in loosely closed bottles to allow for adequate gas exchange and limit evaporation. The exposure medium was changed three times per week, and the animals were fed D. subspicatus daily (0.2 mg C/Daphnia/day). The number of offspring per adult and behavioral or physiological effects (e.g., size, movement, unhatched eggs) were recorded daily (except weekends). Dissolved oxygen, pH and temperature were also measured each week.
(§2) Tests were performed under static conditions (20 °C, 16:8 h light/dark cycle, 1 klux). Each compound was tested in 10 replicates for controls and limit tests (a single high concentration exposure to screen for significant toxic effects) and with 6 or 10 replicates for concentration–response tests. Reuse of silicone disks was included in some experiments (Table S3). Reproductive inhibition was assessed by counting offspring over 21 days. The number of offspring per mother in treatment groups was compared to controls, and the percent inhibition per replicate was used to generate concentration–response curves. A minimum of five concentrations per compound were tested to determine EC10, EC20, and EC50 values. For each test, three sets of polymers were rotated between loading, dosing, and exposure stages (Figure S2). Initial (before animal and food addition) and final (after 2–3 days of exposure, just before the medium change) water concentrations (CW) were monitored, with the latter collected after centrifugation to remove biomass (e.g., algae, carapaces, or feces).
(§3) All data are presented as average ± standard deviation. Student’s t test was used to analyze significance (p-value >0.05 considered insignificant). Concentration–response curve parameters (effective concentrations and confidence limits) and plots were generated using GraphPad Prism software (V6.01, GraphPad Software, La Jolla, CA, USA). The exposure concentrations were log10 transformed before fitting. Then a four parameters logistic model with variable slope was used to obtain EC10, EC20 and EC50 (see section S5 in SI file for details). Effective chemical activities (EA50) for chronic toxicity were calculated as follows: [drawing 1] 1 […]
(§4) S5. Concentration-response curve (CRC) fitting procedure
(§5) GraphPad Prism version 9.5.1 was used to fit CRC and obtain EC10, EC20, EC50 values and their confidence intervals. The exposure concentrations were log10 transformed before fitting. Then a four parameters logistic model with variable slope was used that describes the response as a function of following four parameters: minimum response (the Bottom), maximum response (the Top), the concentration required to cause a response half-way between the minimum and maximum (the EC50) and the slope of the curve […]
(§6) concentration. The Top was constrained to 100, the Bottom was constrained to 0, the HillSlope was not […]
(§7) !"# %& = !"# %&* − , × !"# 3 * 4
(§8) (, + ,((!"# %&'(<=)×-.!!/!"01)
(§9) Figure S7 Concentration-response curves of four NSO-PAHs based on reproductive inhibition during 21-day chronic toxicity tests with D. magna.
(§10) (1 picture or pasted object on this page, not shown here)

[2] = as above; assay type: in vivo, Daphnia magna; details: Daphnia magna, in vivo, other: waterborne exposure by passive dosing from PDMS disks, 21-day test, read-out: % offspring mortality of total offspring
Procedure: as §1, §2, §3, §4, §5, §6, §7, §8, §9, §10

[3] = DNF 0.2 µg/L (0.125 g/L methanol), 21 days
[4] = DNF 0.41 µg/L (0.5 g/L methanol), 21 days
[5] = DNF 1.24 µg/L (1 g/L methanol), 21 days
[6] = DNF […] (0.25 g/L methanol), 21 days
[7] = DNF avr. medium concentration 1.35 µg/L, conc. of methanol for dosing 1.5 g/L, 21 days, single vessels 1-6 (replicates)

## c1ccc2c(c1)ccc1oc3ccc4ccccc4c3c12 [DNF, dinaphtho[2,1-b:1′,2′-d]furan]
[1]; measured in previous work
  SW (water solubility): 1.5 ng/mL
[1]; n-octanol-water partition coefficient
  log KOW: 6.89
[1]; organic carbon-water partition coefficient
  log KOC: 6.61
D. magna
  acute effects on D. magna immobilization: no effects were observed
Daphnia magna; 97.5-2.5% confidence interval in brackets
  EC10: 0.14 (0.05-0.28) μg L^-1
Daphnia magna; confidence interval in brackets
  EC10: 0.52 (0.18-1.03) nmol L^-1
Daphnia magna; 21-day test, p-value <0.05
  growth of parent D. magna (wet weight): did not except at saturation
Daphnia magna; 21 days, p-value <0.05 vs controls
  LOEC (lowest observed effect concentration, reproduction inhibition): 0.2 μg L^–1
Daphnia magna; [3]
  #average live offspring: 75
  %offspring mortality: 2.61%
  % inhibition, avr.: 12.9%
Daphnia magna; DNF 0.2 µg/L (0.125 g/L methanol), 21 days, sum of all vessels
  #total live offspring: 447
Daphnia magna; DNF 0.2 µg/L (0.125 g/L methanol), live offspring vs controls, 21 days, per vessel
  % inhibition (per vessel): 15.8%
Daphnia magna; [4]
  #average live offspring: 63
  %offspring mortality: 5.09%
  % inhibition, avr.: 25.8%
Daphnia magna; DNF 0.41 µg/L (0.5 g/L methanol), 21 days, sum of all vessels
  #total live offspring: 317
Daphnia magna; DNF 0.41 µg/L (0.5 g/L methanol), vessel 3, day 5
  mother animal mortality: dead
Daphnia magna; [5]
  #average live offspring: 59
  %offspring mortality: 11.81%
  % inhibition, avr.: 31.6%
Daphnia magna; DNF 1.24 µg/L (1 g/L methanol), 21 days, sum of all vessels
  #total live offspring: 351
Daphnia magna; [6]
  #average live offspring: 69
  %offspring mortality: 4.95%
  % inhibition, avr.: 19.1%
Daphnia magna; DNF […] (0.25 g/L methanol), 21 days, sum of all vessels
  #total live offspring: 346
Daphnia magna; DNF […] (0.25 g/L methanol), vessel 6, day 5
  mother animal mortality: dead
Daphnia magna; DNF avr. medium concentration 0.2 µg/L (methanol for dosing 0.125 g/L), 21 days
  #live offspring per mother, Total: 75 and 64 and 72 and 66 and 98
Daphnia magna; DNF avr. medium concentration 0.41 µg/L (methanol for dosing 0.5 g/L), 21 days
  #live offspring per mother, Total: 59 and 75 and 67 and 55 and 61
Daphnia magna; DNF avr. medium concentration 1.24 µg/L (methanol for dosing 1 g/L), 21 days
  #live offspring per mother, Total: 62 and 51 and 53 and 60 and 50 and 75
Daphnia magna; DNF avr. medium concentration 1.35 µg/L, conc. of methanol for dosing 1.5 g/L, 21 days
  %offspring mortality: 16.71%
Daphnia magna; DNF avr. medium concentration 1.35 µg/L, conc. of methanol for dosing 1.5 g/L, 21 days, average of 6 vessels
  % inhibition, avr. (live offspring per mother): 39.8%
Daphnia magna; DNF avr. medium concentration 1.35 µg/L, conc. of methanol for dosing 1.5 g/L, 21 days, mean of 6 vessels
  #average live offspring: 52
Daphnia magna; [7]
  #dead offspring per mother, Total (per vessel): 9 and 12 and 16 and 5 and 8
  #live offspring per mother, Total (per vessel): 49 and 74 and 37 and 40 and 53 and 56
  % inhibition (live offspring per mother, per vessel): 42.7% and 13.5% and 56.7% and 53.2% and 38.0% and 34.5%
Daphnia magna; DNF avr. medium concentration 1.35 µg/L, conc. of methanol for dosing 1.5 g/L, 21 days, sum of 6 vessels
  #total live offspring: 309
Daphnia magna; EC50/subcooled liquid solubility, eq 1
  EA50 (effective chemical activity): 0.032 unitless
Daphnia magna; chronic EC10 < 10 μg L^–1
  Classification according to REACH Annex XIII: toxic to aquatic life
Daphnia magna; derived from chronic EC10 using eq 3
  CTLBB (critical target lipid body burden): 3.4 μmol g^-1 octanol
Daphnia magna; 0.18 µg/L (Fig. S9)
  wet weight of parent daphnids, change relative to control: +1%
Daphnia magna; 0.24 µg/L (Fig. S9)
  wet weight of parent daphnids, change relative to control: -2%
Daphnia magna; 0.39 µg/L (Fig. S9)
  wet weight of parent daphnids, change relative to control: -6%
Daphnia magna; 1.16 µg/L (Fig. S9)
  wet weight of parent daphnids, change relative to control: 2%
Daphnia magna; 1.30 µg/L (Fig. S9)
  wet weight of parent daphnids, change relative to control: -6%
Daphnia magna; 1.44 µg/L (Fig. S9)
  wet weight of parent daphnids, change relative to control: -27%
[2]; 0.18 µg/L (Fig. S8)
  mortality at 21 days, 0.18 µg/L: 2.6%
[2]; 0.24 µg/L (Fig. S8)
  mortality at 21 days, 0.24 µg/L: 5%
[2]; 0.39 µg/L (Fig. S8)
  mortality at 21 days, 0.39 µg/L: 5.1%
[2]; 1.16 µg/L (Fig. S8)
  mortality at 21 days, 1.16 µg/L: 11.8%
[2]; 1.30 µg/L (Fig. S8)
  mortality at 21 days, 1.3 µg/L: 16.7%
[2]; 1.44 µg/L (Fig. S8)
  mortality at 21 days, 1.44 µg/L: 42.2%
